{"source": "patent US20260235581A1", "about": "“METHOD FOR THE SELECTION OF AN ECOBIOLOGICAL COMPOUND CAPABLE OF INCREASING THE SKIN TOLERANCE THRESHOLD” (NAOS INSTITUTE OF LIFE SCIENCE, priority 2023, published 2026)", "key": {"[1]": {"test_system": "TAFA4", "experiment": "TAFA4 synthesis in normal human fibroblast culture supernatant, dot blot", "format": "cell-based", "conditions": "for effect on the synthesis of TAFA4 (modulation of TAFA4 in the NHF supernatant): 72 hours of incubation, versus DMEM medium control set to 100%, valproic acid 0.025% and 0.05%, TGF-β 10 and 100 ng/ml, LPS 1 μg/ml; for doses with statistically significant induction of TAFA4 synthesis: NHF supernatant, 72 hours, Student test p<0.05, two doses tested", "procedure": "Normal human fibroblasts (NHFs) have been used in this study (Lonza-Switzerland). The cells are seeded at 10,000 cells in 24-well plates in DMEM+1% Penicillin-streptomycin (P/S). After 72 hours of incubation at 37° C., 5% CO2, the supernatants and protein extracts (obtained from the cell layer) are recovered and stored at −80° C. Before assaying the TAFA4 protein, an evaluation of the toxicity of the compounds tested is performed using the MTT test. Only the concentrations which make it possible to obtain a viability greater than 80% are selected to be quantified by ELISA and dot blot. Dot blotting is an immunoenzymatic detection method for quantifying a protein in a sample after it has been deposited on a nitro-cellulose membrane in a well. Specific equipment (Biorad, France) is used with a nitrocellulose membrane. The device is subjected to a vacuum pressure which will make it possible to create the suctioning of the sample (supernatant or protein extract) and therefore, the binding of proteins to the nitrocellulose membrane. The equipment is placed at a height with respect to the vacuum pump, to respect the principle of gravity. The membrane is previously hydrated with 100 μl of TBS buffer (Tris base+NaCl diluted in water adjusted to pH 7.5) per well. This operation is repeated twice in order to optimise the hydration of the membrane for optimal binding of the proteins contained in the samples. The samples to be analysed (supernatants and protein extracts) and the different solutions of TAFA4 recombinant proteins at different concentrations of the TAFA4 standard range (0.78 to 100 ng/ml) are deposited in the plate (volume 100 μl/well used for the protein extracts and 500 μl/well-used for the supernatants) then the suction flow is activated. […] The presence of the TAFA4 protein on the membrane is conveyed by the formation of a grey to black spot depending on the intensity of the reaction and therefore on the quantity of protein. The membrane is read with the Fusion FX device (Vilber Lourmat) coupled with the VisionCapt software (Vilber Lourmat). The quantification of the TAFA4 protein in the samples tested is done with the VisionCapt software which makes it possible to measure the intensity of the various spots. The quantity of samples is then produced using the standard curve of the TAFA4 standard established with the recombinant protein The data have been collected from independent experiments performed in triplicate. Quantitative analyses are expressed in the form of mean±standard deviation. Statistical significance is determined by a Student test. […] The results are expressed as a percentage of TAFA4 expression by standardising the control to 100% (DMEM medium control). […]"}, "[2]": {"test_system": "pain/hypersensitivity felt locally in the skin", "conditions": "mice, injection subcutaneously or at the level of the neurons present in the bone marrow; cited from earlier work"}, "[3]": {"test_system": "KO mice for TAFA4", "conditions": "UVC irradiation, intradermal injection post-irradiation; cited from earlier work"}, "[4]": {"test_system": "KO mice for TAFA4", "conditions": "intradural injection; inflammatory pain agonist or partial lesion of the sciatic nerve; cited from earlier work"}}, "data": [{"molecule": "CCCC(CCC)C(=O)O", "note": "[Valproic acid, reference compound]", "values": [{"measurement": "effect on the synthesis of TAFA4 (modulation of TAFA4 in the NHF supernatant)", "setting": "[1]", "result": "induce the synthesis of TAFA4 in a dose-dependent manner"}, {"measurement": "doses with statistically significant induction of TAFA4 synthesis", "setting": "[1]", "result": "1 out of 2 doses"}]}, {"molecule": "TGF-β: TGF-β protein, 100-21, PEPROTECH", "values": [{"measurement": "effect on the synthesis of TAFA4 (modulation of TAFA4 in the NHF supernatant)", "setting": "[1]", "result": "induce the synthesis of TAFA4 in a dose-dependent manner"}, {"measurement": "doses with statistically significant induction of TAFA4 synthesis", "setting": "[1]", "result": "2 out of 2 doses"}]}, {"molecule": "human TAFA4 protein: TAFA Chemokine Like Family Member 4 protein, a neurokine; injected recombinant protein in literature mouse studies", "values": [{"measurement": "duration of the reduction of pain/hypersensitivity post-injection", "setting": "[2]", "result": "up to 4 hours"}, {"measurement": "effect on pain/hypersensitivity felt locally in the skin", "setting": "[2]", "result": "reduces the pain/hypersensitivity felt locally in the skin"}, {"measurement": "effect on 35-day post-irradiation inflammation resolution defect", "setting": "[3]", "result": "can be compensated"}, {"measurement": "effect on increased hypersensitivity to pain of TAFA4 KO mice", "setting": "[4]", "result": "compensates for the condition of TAFA4 KO mice"}]}]}
